Results reported in ChEMBL document CHEMBL1141758, “Gesashidine A, a beta-carboline alkaloid with an imidazole ring from a Thorectidae sponge” (J Nat Prod, 2005).
Activity calls are given as the source filed them. The calls are words filed in the database; no cut-off is given here.

Assays:
Micrococcus luteus = experiment: Antimicrobial activity against Micrococcus luteus; format: functional
L1210 = experiment: Cytotoxicity against mouse L1210 cells; format: functional, cell-based
KB = experiment: Cytotoxicity against human KB cells; format: functional, cell-based

Row | MIC (Micrococcus luteus) [µg/mL] | Structure (SMILES) | Activity (Micrococcus luteus) | IC50 (L1210) [µg/mL] | IC50 (KB) [µg/mL]
1 | – | CSc1c(Cc2nc(C(=O)[O-])cc3c2[nH]c2ccc(O)cc23)n(C)c[n+]1C | inactive | – | –
2 | – | CSc1c(C(=O)c2nc(C(=O)[O-])cc3c2[nH]c2ccc(O)cc23)n(C)c[n+]1C | inactive | – | –
3 | 16.6 | CSc1c(Cc2nccc3c2[nH]c2ccc(O)cc23)n(C)c[n+]1C [GESASHIDINE A] | – | > 10 | > 10
